Values quoted from earlier work, collected in US8546585B2, “Process for preparing eprosartan mesylate” (Zhejiang Huahai Pharmaceutical Co., Ltd., priority 2008, dated 2013).
Counter-ions that a name gives are not always drawn.

Tests used:
[1] = mild, moderate and severe hypertensive patients
[2] = not given; remark: listed apart in the source
[3] = patients with liver and kidney dysfunction, or fullness after administration

CCCCc1ncc(/C=C(\Cc2cccs2)C(=O)O)n1Cc1ccc(C(=O)O)cc1 [Eprosartan mesylate]
absorption (administrated orally): rapidly absorbed
AUC (Area Under Curve) elevated by [3]: about 50%
blood peak concentration elevated by [3]: about 50%
lowering of systolic and diastolic pressures [1]: potent to lower systolic and diastolic pressures
safety and tolerability [1]: safe and tolerable
protein binding rate [2]: 98%
